# Measured values reported in patent US20260226493A1, “HERBICIDE RESISTANT PLANTS” (SYNGENTA CROP PROTECTION AG, priority 2023, published 2026).
# How the values were obtained:
# Format in all cases: biochemical
# [1] = test system: Ostreococcus tauri BioDA A374D; test: BioDA enzyme activity with DMSO or herbicide in vitro
# [2] = test system: Ostreococcus tauri BioDA P407A; test: as above
# [3] = test system: Ostreococcus tauri BioDA F332A; test: as above
# [4] = molecular target: T1, Arabidopsis thaliana BIO3-BIO1 (BioDA) mutants (Arabidopsis thaliana, UniProt B0F481, DEL513-513); test: BIO3-BIO1 mutant enzyme activity in the presence of herbicide, percentage inhibition (fluorometric DAPA assay); settings: read-out: percentage inhibition
# T1 construct: with the predicted N-terminal mitochondrial transit peptide removed; 6xHis-tag (N); thrombin cleavage site (N); made in house; host or cells: E. coli BL21 (DE3) bioA
# T1 sequence (B0F481 other isoform, or with tags, fused parts or gaps DEL513-513): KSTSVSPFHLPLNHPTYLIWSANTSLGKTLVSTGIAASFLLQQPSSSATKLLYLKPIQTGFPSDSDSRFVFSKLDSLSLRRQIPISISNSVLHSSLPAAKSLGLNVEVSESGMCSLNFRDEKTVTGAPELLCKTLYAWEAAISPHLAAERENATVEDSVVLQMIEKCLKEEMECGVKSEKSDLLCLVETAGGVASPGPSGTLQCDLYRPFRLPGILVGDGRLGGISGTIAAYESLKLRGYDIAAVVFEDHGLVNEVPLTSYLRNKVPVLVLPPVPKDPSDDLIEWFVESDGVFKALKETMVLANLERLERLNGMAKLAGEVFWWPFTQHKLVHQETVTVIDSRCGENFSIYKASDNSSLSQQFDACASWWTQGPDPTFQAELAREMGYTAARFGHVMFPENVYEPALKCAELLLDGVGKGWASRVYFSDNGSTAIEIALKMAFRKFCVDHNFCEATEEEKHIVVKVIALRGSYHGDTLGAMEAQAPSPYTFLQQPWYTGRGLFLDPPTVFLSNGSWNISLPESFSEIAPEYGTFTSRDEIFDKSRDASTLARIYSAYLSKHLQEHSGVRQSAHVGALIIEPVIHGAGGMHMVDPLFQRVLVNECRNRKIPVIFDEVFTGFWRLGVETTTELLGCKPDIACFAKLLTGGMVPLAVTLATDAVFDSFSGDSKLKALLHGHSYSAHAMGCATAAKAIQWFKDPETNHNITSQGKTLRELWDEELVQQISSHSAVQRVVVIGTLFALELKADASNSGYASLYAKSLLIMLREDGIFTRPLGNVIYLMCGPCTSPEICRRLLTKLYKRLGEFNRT
# Description: (§1) A pet-24 plasmid containing a DNA sequence encoding each identified variant mutant of BIO3-BIO1 derived from Arabidopsis thaliana from example 5 above, as shown in Table 13 below and as shown in full in SEQ ID NOs: 15 to 155, codon-optimised for expression in E. coli, with an N-terminal 6×His-tag and thrombin cleavage site and under control of a T7 promoter, and was synthesised by Twist Bioscience, in a similar manner to SEQ ID NO:311. These plasmids were then expressed in E. coli BL21 (DE3) bioA with 50 μg/mL kanamycin and 25 μg/mL chloramphenicol selection. Overnight cultures grown at 37° C. were used to inoculate 8×500 mL AIM in shake flasks at a ratio of 1:100. Cultures were grown at 37° C., 200 rpm for 3.5 hours and then overnight at 20° C. Cells were harvested by centrifugation for 30 minutes at 10 000 g. Cells were stored at −80° C. until extraction. 30 g of cell pellet from was thawed in 120 mL of IMAC buffer A (20 mM HEPES pH7.5, 25 mM imidazole, 500 mM sodium chloride, 0.15 mM pyridoxal phosphate, 0.5 mM TCEP, 1× complete Protease Inhibitor Tablet (Roche)). The resuspension was passed through a cell disrupter at 18 000 PSI and centrifuged at 50 000 g for 25 minutes at 4° C. The His-tagged BIO3-BIO1 protein was purified from the extract supernatant on an AKTA avant chromatography system (Cytiva) using a HisTrap FF column and eluted in IMAC buffer B ((20 mM HEPES pH7.5, 500 mM imidazole, 500 mM sodium chloride, 0.15 mM pyridoxal phosphate, 0.5 mM TCEP) followed by SEC using a HiLoad 26/60 Superdex200 column in SEC buffer (25 mM HEPES pH7.5, 150 mM sodium chloride, 0.15 mM pyridoxal phosphate, 0.5 mM TCEP). Protein concentration was measured and calculated using the absorbance at 280 nm. Extracts were diluted 1 in 4 and 10 uL was analysed by SDS PAGE.
# (§2) To measure BIO3-BIO1 mutant enzyme activity in the presence of herbicide, herbicides were incubated with 20 μL of enzyme mix (100 mM EPPS pH 8.6, 0.1 mM pyridoxal phosphate, 0.1 mg/mL BSA, 50 nM BIO3-BIO1 enzyme) for 10 minutes at 20° C. in a well of a 96-well half-area black plate, followed by the addition of 20 μL of substrate mix (final concentration of 100 mM EPPS pH 8.6, 0.1 mM pyridoxal phosphate, 0.1 mg/mL BSA, 100 μM spermidine, 20 μM KAPA, 100 mM NaCO3) and further incubation for 75 minutes at 20° C. The reaction was terminated by the addition of 50 μL of derivatisation mix (final concentration of 250 mM borate NaOH pH 9.4, 3.6 mM o-phthalaldehyde, 7 mM β-mercaptoethanol, 17% (v/v) ethanol, 3.6% (v/v) methanol). The fluorescent product produced by the reaction of DAPA with o-phthalaldehyde and 7 mM β-mercaptoethanol was measured at 470 nm after excitation at 410 nm. The percentage inhibition was calculated as the activity in the presence of one of three concentrations of each herbicide compound A to M (note that the compounds labelled as A to M are identified hereinabove in the relevant section of the description) as a percentage of the activity in DMSO (Table 12 and 13). The percentage activity versus WT was also calculated and is shown in Table 13 and 14 (NT indicates mutation not tested in table 13, note that these mutations are tested at different compound concentrations for compounds L, M and C, and the results are shown in table 14).
# [5] = molecular target: T2, Arabidopsis thaliana BIO3-BIO1 (BioDA) mutants (Arabidopsis thaliana, UniProt B0F481, P529A); test: as above; settings: read-out: percentage inhibition
# T2 construct: with the predicted N-terminal mitochondrial transit peptide removed; 6xHis-tag (N); thrombin cleavage site (N); made in house; host or cells: E. coli BL21 (DE3) bioA
# T2 sequence (B0F481 23-833 P529A): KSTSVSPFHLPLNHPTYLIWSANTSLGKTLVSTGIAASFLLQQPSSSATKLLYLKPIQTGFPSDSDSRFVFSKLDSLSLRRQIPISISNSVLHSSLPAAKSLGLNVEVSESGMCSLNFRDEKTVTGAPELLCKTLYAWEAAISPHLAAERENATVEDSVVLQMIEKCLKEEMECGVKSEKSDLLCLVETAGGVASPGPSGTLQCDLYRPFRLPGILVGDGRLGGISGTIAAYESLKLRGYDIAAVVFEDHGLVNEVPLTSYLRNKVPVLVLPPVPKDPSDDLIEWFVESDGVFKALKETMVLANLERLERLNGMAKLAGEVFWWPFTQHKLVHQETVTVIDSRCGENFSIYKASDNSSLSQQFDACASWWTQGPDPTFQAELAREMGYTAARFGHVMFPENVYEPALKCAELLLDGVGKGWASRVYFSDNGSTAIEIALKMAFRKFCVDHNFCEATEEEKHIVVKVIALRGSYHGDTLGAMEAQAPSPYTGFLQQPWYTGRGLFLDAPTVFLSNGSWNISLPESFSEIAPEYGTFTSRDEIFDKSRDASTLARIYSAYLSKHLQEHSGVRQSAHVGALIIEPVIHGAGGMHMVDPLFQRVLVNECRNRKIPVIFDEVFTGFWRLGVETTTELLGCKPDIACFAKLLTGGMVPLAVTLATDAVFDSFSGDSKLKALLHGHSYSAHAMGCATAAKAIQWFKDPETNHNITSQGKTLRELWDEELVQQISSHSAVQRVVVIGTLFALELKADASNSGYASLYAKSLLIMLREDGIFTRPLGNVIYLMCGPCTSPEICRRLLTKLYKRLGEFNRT
# Description: as §1, §2
# [6] = molecular target: T3, Arabidopsis thaliana BIO3-BIO1 (BioDA) mutants (Arabidopsis thaliana, UniProt B0F481, P421W); test: as above; settings: read-out: percentage inhibition
# T3 construct: with the predicted N-terminal mitochondrial transit peptide removed; 6xHis-tag (N); thrombin cleavage site (N); made in house; host or cells: E. coli BL21 (DE3) bioA
# T3 sequence (B0F481 23-833 P421W): as the sequence (B0F481 23-833 P529A) above, with P399W, A507P counted along it
# Description: as §1, §2
# [7] = molecular target: T4, Arabidopsis thaliana BIO3-BIO1 (BioDA) mutants (Arabidopsis thaliana, UniProt B0F481, Q517D); test: as above; settings: read-out: percentage inhibition
# T4 construct: with the predicted N-terminal mitochondrial transit peptide removed; 6xHis-tag (N); thrombin cleavage site (N); made in house; host or cells: E. coli BL21 (DE3) bioA
# T4 sequence (B0F481 23-833 Q517D): as the sequence (B0F481 23-833 P529A) above, with Q495D, A507P counted along it
# Description: as §1, §2
# [8] = molecular target: T5, Arabidopsis thaliana BIO3-BIO1 (BioDA) mutants (Arabidopsis thaliana, UniProt B0F481, A609C); test: as above; settings: read-out: percentage inhibition
# T5 construct: with the predicted N-terminal mitochondrial transit peptide removed; 6xHis-tag (N); thrombin cleavage site (N); made in house; host or cells: E. coli BL21 (DE3) bioA
# T5 sequence (B0F481 23-833 A609C): as the sequence (B0F481 23-833 P529A) above, with A507P, A587C counted along it
# Description: as §1, §2
# [9] = molecular target: T6, Arabidopsis thaliana BIO3-BIO1 (BioDA) mutants (Arabidopsis thaliana, UniProt B0F481, G513P); test: as above; settings: read-out: percentage inhibition
# T6 construct: with the predicted N-terminal mitochondrial transit peptide removed; 6xHis-tag (N); thrombin cleavage site (N); made in house; host or cells: E. coli BL21 (DE3) bioA
# T6 sequence (B0F481 23-833 G513P): as the sequence (B0F481 23-833 P529A) above, with G491P, A507P counted along it
# Description: as §1, §2
# [10] = molecular target: T7, Arabidopsis thaliana BIO3-BIO1 (BioDA) mutants (Arabidopsis thaliana, UniProt B0F481, S509G); test: as above; settings: read-out: percentage inhibition
# T7 construct: with the predicted N-terminal mitochondrial transit peptide removed; 6xHis-tag (N); thrombin cleavage site (N); made in house; host or cells: E. coli BL21 (DE3) bioA
# T7 sequence (B0F481 23-833 S509G): as the sequence (B0F481 23-833 P529A) above, with S487G, A507P counted along it
# Description: as §1, §2
Compound,% Inhibition relative to DMSO treatment ([1]; 31 μM) [%],% Inhibition relative to DMSO treatment ([1]; 500 μM) [%],% Inhibition relative to DMSO treatment ([2]; 31 μM) [%],% Inhibition relative to DMSO treatment ([2]; 500 μM) [%],% Inhibition relative to DMSO treatment ([3]; 31 μM) [%],% Inhibition relative to DMSO treatment ([3]; 500 μM) [%],inhibition at 0.2 µM [4] [%],inhibition at 1 µM [4] [%],inhibition at 5 µM [4] [%],inhibition at 0.2 µM [5] [%],inhibition at 1 µM [5] [%],inhibition at 5 µM [5] [%],inhibition at 0.2 µM [10] [%],inhibition at 1 µM [10] [%],inhibition at 5 µM [10] [%],inhibition at 0.2 µM [6] [%],inhibition at 1 µM [6] [%],inhibition at 1 µM [7] [%],inhibition at 1 µM [8] [%],inhibition at 1 µM [9] [%],other results
"CC(O)C(N)CCCCC(=O)O.Cl (stereo not shown) [Compound B, [5-carboxy-1-(1-hydroxyethyl)pentyl]ammonium chloride]",,,,,,,,,,,,,,,,,,,,,% Inhibition relative to DMSO treatment ([1]; 200 μM): 95%; % Inhibition relative to DMSO treatment ([2]; 200 μM): 46%; % Inhibition relative to DMSO treatment ([3]; 200 μM): 66%
"CCn1c(Cn2ccc(C(F)(F)F)n2)cc(=O)c(C(=O)O)c1-c1ccc(Cl)c(Cl)c1 [Compound L, 2-(3,4-dichlorophenyl)-1-ethyl-4-oxo-6-[[3-(trifluoromethyl)pyrazol-1-yl]methyl]pyridine-3-carboxylic acid]",98,93,58,94,4,53,,,,,,,,,,,,,,,inhibition at 0.01 µM [4]: 31%; inhibition at 0.075 µM [4]: 30%; inhibition at 0.5 µM [4]: 54%; inhibition at 0.01 µM [5]: 0%; inhibition at 0.075 µM [5]: 0%; inhibition at 0.5 µM [5]: 60%; inhibition at 0.01 µM [6]: 0%; inhibition at 0.075 µM [6]: 8%; inhibition at 0.5 µM [6]: 27%; inhibition at 0.01 µM [7]: 0%; inhibition at 0.075 µM [7]: 0%; inhibition at 0.5 µM [7]: 0%; inhibition at 0.01 µM [8]: 4%; inhibition at 0.075 µM [8]: 22%; inhibition at 0.5 µM [8]: 30%; inhibition at 0.01 µM [9]: 5%; inhibition at 0.075 µM [9]: 46%; inhibition at 0.5 µM [9]: 86%
"CCn1c(C)c(-c2ccc(F)cc2F)c(=O)c(C(=O)O)c1-c1ccc(Cl)c(Cl)c1 [Compound C, 2-(3,4-dichlorophenyl)-5-(2,4-difluorophenyl)-1-ethyl-6-methyl-4-oxo-pyridine-3-carboxylic acid]",,,,,,,69,90,98,4,25,71,20,53,75,0,15,0,73,95,inhibition at 5 µM [6]: 37%; inhibition at 0.2 µM [7]: 0%; inhibition at 5 µM [7]: 0%; inhibition at 0.2 µM [8]: 29%; inhibition at 5 µM [8]: 94%; inhibition at 0.2 µM [9]: 52%; inhibition at 5 µM [9]: 99%
"CCn1c(C)c(-c2cc(OC(F)(F)F)ccc2Cl)c(=O)c(C(=O)O)c1-c1ccc(Cl)c(Cl)c1 [Compound D, 5-[2-chloro-5-(trifluoromethoxy)phenyl]-2-(3,4-dichlorophenyl)-1-ethyl-6-methyl-4-oxo-pyridine-3-carboxylic acid]",,,,,,,,,,,,,,,,,,,,,% Inhibition relative to DMSO treatment ([1]; 0.5 μM): 82%; % Inhibition relative to DMSO treatment ([1]; 5 μM): 95%; % Inhibition relative to DMSO treatment ([2]; 0.5 μM): 4%; % Inhibition relative to DMSO treatment ([2]; 5 μM): 26%; % Inhibition relative to DMSO treatment ([3]; 0.5 μM): 0%; % Inhibition relative to DMSO treatment ([3]; 5 μM): 7%
"CCOC(=O)c1nn(-c2ccc3c(c2)OC(F)(F)C(F)(F)O3)c2cccc(C(C)=O)c2c1=O [Compound A, ethyl 5-acetyl-4-oxo-1-(2,2,3,3-tetrafluoro-1,4-benzodioxin-6-yl)cinnoline-3-carboxylate]",,,,,,,,29,,,0,,,36,,,21,22,18,63,
"CCn1c(-c2ccc(Cl)c(Cl)c2)c(C(=O)O)c(=O)c2cc(F)ccc21 [Compound M, 2-(3,4-dichlorophenyl)-1-ethyl-6-fluoro-4-oxo-quinoline-3-carboxylic acid]",94,93,37,92,7,46,60,83,95,0,25,68,28,47,71,0,0,2,47,83,inhibition at 5 µM [6]: 18%; inhibition at 0.2 µM [7]: 6%; inhibition at 5 µM [7]: 0%; inhibition at 0.2 µM [8]: 10%; inhibition at 5 µM [8]: 78%; inhibition at 0.2 µM [9]: 52%; inhibition at 5 µM [9]: 97%
